Assay results reported in patent US20070010671A1, “Novel quinazoline derivatives and methods of treatment related to the use thereof” (priority 2003, published 2007).
Where a name gives a salt, the structure may show the parent alone.

Target: MCH receptor (Homo sapiens, UniProt Q99705)
Test: High throughput functional screening FLIPR/FDSS6000: inhibition of MCH-evoked intracellular Ca2+ changes
Assay type: cell-based
Settings: antagonist activity, 50 nM of MCH, FLIPR or FDSS; read-out: IC50
Source text: Subsequently, a functional based assay was used to confirm the lead hits, referred to as FLIPR™ (the Fluorometric Imaging Plate Reader) and FDSS6000™ (Functional Drug Screening System). This assay utilized 3 non-endozenous, constitutively active version of the MCH receptor.
The FLIPR and FDSS assays are able to detect intracellular Ca^2+ concentration in cells, which can be utilized to assess receptor activation and determine whether a candidate compound is an, for example, antagonist, inverse agonist or agonist to a Gq-coupled receptor. The concentration of free Ca^2+ in the cytosol of any cell is extremely low, whereas its concentration in the extracellular fluid and endoplasmic reticulum (ER) is very high. Thus, there is a large gradient tending to drive Ca^2+ into the cytosol across both the plasma membrane and ER. The FLIPR™ and FDSS6000™ systems (Molecular Devices Corporation, HAMAMATSU Photonics K.K.) are designed to perform functional cell-based assays, such as the measurement of intracellular calcium for high-throughput screening, The measurement of fluorescent is associated with calcium release upon activation of the Gq-coupled receptors.
Fluorometric Imaging Plate Reader system was used to allow for rapid, kinetic measurements of intracellular fluorescence in 96 well microplates (or 384 well microplates). Simultaneous measurements of fluorescence in all wells can be made by FLIPR or FDSS6000™ every second with high sensitivity and precision. These systems are ideal for measuring cell-based functional assays such as monitoring the intracellular calcium fluxes that occur within seconds after activation of the Gq coupled receptor.
Briefly, the cells are seeded into 96 well at 5.5×10^4 cells/well with complete culture media (Dulbecco's Modified Eagle Medium with 10% fetal bovine serum, 2 mMi L-glutamine, 1 mM sodium pyruvate and 0.5 mg/ml G418, pH 7.4) for the assay next day. On the day of assay, the media is removed and the cells are incubated with 100 μl of loading buffer (4 μM Fluo4-AM in complete culture media containing 2.5 mM Probenicid, 0.5 mg/ml and 0.2% bovine serum albumin) in 5% CO2 incubator at 37° C. for 1 hr. The loading buffer is removed, and the cells are washed with wash buffer (Hank's Balanced Salt Solution containing 2.5 mM Probenicid, 20 mM HEPES, 0.5 mg/ml and 0.2% bovine serum albumm, pH 7.4)). One hundred fifty μl of wash buffer containing various concentrations of test compound is added to the cells, and the cells are incubated in 5% CO2 incubator at 37° C. for 3 min. Fifty μl of wash buffer containing various concentration of MCH are added to each well, and transient changes in [Ca^2+]i evokled bee MCH are monoitored using the FLIPR, or FDSS in 96 shell plates at Ex. 488 nm and Em. 530 nm for 290 second. When antagonist activity of compound is tested, 50 nM of MCH is used.
Use of FLIPR™ and FDSS6000™ can be accomplished by following manufacturer's instruction (Molecular Device Corporation and HAMAMATSU Photonics K.K.).

| IC50 [µM] | SMILES |
| --- | --- |
| 0.0033 | Cc1cccc(Oc2ncccc2C(=O)N[C@H]2CC[C@@H](Nc3nc(N(C)C)c4ccccc4n3)CC2)c1 [Example 898, N-(cis-4-{[4-(Dimethylamino)quinazolin-2-yl]amino}cyclohexyl)-2-(3-methylphenoxy)-nicotinamide trifluoroacetate] |

Same assay, conditions: class by percent of control at 10^-7 M or IC50

| SMILES | class |
| --- | --- |
| COc1ccc([N+](=O)[O-])cc1NC(=S)N[C@H]1CC[C@@H](Nc2nc(N(C)C)c3ccccc3n2)CC1 [compound 301] | 3 (Class 3: The value of percent of control at 10^−7 M was more than 60% or the value of IC50 was more than 200 nM.) |
| CN(C)c1nc(N[C@H]2CC[C@@H](CNC(=S)Nc3ccc(I)cc3)CC2)nc2ccccc12 [compound 661] | 3 (Class 3: The value of percent of control at 10^−7 M was more than 60% or the value of IC50 was more than 200 nM.) |
| CN(C)c1nc(N[C@H]2CC[C@@H](CNC(=S)Nc3c(F)c(F)c(F)c(F)c3F)CC2)nc2ccccc12 [compound 616, N-[(cis-4-{[4-(dimethylamino)quinazolin-2-yl]amino}cyclohexyl)methyl]-N′-(pentafluorophenyl)thiourea] | 2 (Class 2: The value of percent of control at 10^−7 M was from 40% to 60% or the value of IC50 was from 50 nM to 200 nM.) |
| CCOc1ccccc1NC(=S)NC[C@H]1CC[C@@H](Nc2nc(N(C)C)c3ccccc3n2)CC1 [compound 786, N-[(cis-4-{[4-(dimethylamino)quinazolin-2-yl]amino}cyclohexyl)methyl]-N′-(2-ethoxyphenyl)thiourea] | 2 (Class 2: The value of percent of control at 10^−7 M was from 40% to 60% or the value of IC50 was from 50 nM to 200 nM.) |
| CN(C)c1nc(N[C@H]2CC[C@@H](CNC(=O)NC3CCCCC3)CC2)nc2ccccc12 [compound 417, N-cyclohexyl-N′-[(cis-4-{[4-(dimethylamino)quinazolin-2-yl]amino}cyclohexyl)methyl]urea] | 2 (Class 2: The value of percent of control at 10^−7 M was from 40% to 60% or the value of IC50 was from 50 nM to 200 nM.) |
| COc1ccc(NC(=S)NC[C@H]2CC[C@@H](Nc3nc(N(C)C)c4ccccc4n3)CC2)c([N+](=O)[O-])c1 [compound 700] | 3 (Class 3: The value of percent of control at 10^−7 M was more than 60% or the value of IC50 was more than 200 nM.) |
| Cc1ccc([N+](=O)[O-])c(NC(=O)NC[C@H]2CC[C@@H](Nc3nc(N(C)C)c4ccccc4n3)CC2)c1C [compound 473] | 1 (Class 1: The value of percent of control at 10^−7 M was less than 40% or the value of IC50 was less than 50 nM.) |
| CN(C)c1nc(N[C@H]2CC[C@@H](CNC(=S)Nc3cc(Br)ccc3Br)CC2)nc2ccccc12 [compound 719] | 3 (Class 3: The value of percent of control at 10^−7 M was more than 60% or the value of IC50 was more than 200 nM.) |
| Cc1cccc(C)c1NC(=O)NC[C@H]1CC[C@@H](Nc2nc(N(C)C)c3ccccc3n2)CC1 [compound 420, N-[(cis-4-{[4-(dimethylamino)quinazolin-2-yl]amino}cyclohexyl)methyl]-N′-(2,6-dimethylphenyl)urea] | 1 (Class 1: The value of percent of control at 10^−7 M was less than 40% or the value of IC50 was less than 50 nM.) |
| CN(C)c1nc(N[C@H]2CC[C@@H](CNC(=O)Nc3ccc4c(c3)OCO4)CC2)nc2ccccc12 [compound 519] | 3 (Class 3: The value of percent of control at 10^−7 M was more than 60% or the value of IC50 was more than 200 nM.) |

Same assay, conditions: class by percent of control at 10^-7 M or by IC50; read-out: class

| IC50 [µM] | SMILES |
| --- | --- |
| > 0.2 | COc1ccc(NC(=O)N[C@H]2CC[C@@H](Nc3nc(N(C)C)c4ccccc4n3)CC2)c([N+](=O)[O-])c1 [compound 828] |
| < 0.05 | CN(C)c1nc(N[C@H]2CC[C@@H](NC(=O)Nc3ccccc3C(C)(C)C)CC2)nc2ccccc12 [compound 117, N-(2-tert-butylphenyl)-N′-(cis-4-{[4-(dimethylamino)quinazolin-2-yl]amino}cyclohexyl)urea] |
| > 0.2 | CCCCc1ccc(NC(=O)N[C@H]2CC[C@@H](Nc3nc(N(C)C)c4ccccc4n3)CC2)cc1 [compound 832] |
| > 0.2 | Cc1cccc(CNC(=O)N[C@H]2CC[C@@H](Nc3nc(N(C)C)c4ccccc4n3)CC2)c1 [compound 49] |
| > 0.2 | CCCCNC(=S)N[C@H]1CC[C@@H](Nc2nc(N(C)C)c3ccccc3n2)CC1 [compound 159] |
| 0.05 to 0.2 | CN(C)c1nc(N[C@H]2CC[C@@H](NC(=O)NCc3cccc(F)c3)CC2)nc2ccccc12 [compound 134, N-(cis-4-{[4-(dimethylamino)quinazolin-2-yl]amino}cyclohexyl)-N′-(3-fluorobenzyl)urea] |

The remaining lines, values behind:

| SMILES | IC50 [µM] |
| --- | --- |
| CN(C)c1nc(N[C@H]2CC[C@@H](NC(=O)Nc3ccccc3Cc3ccccc3)CC2)nc2ccccc12 [compound 86] | > 0.2 |
| Cc1cc(NC(=O)N[C@H]2CC[C@@H](Nc3nc(N(C)C)c4ccccc4n3)CC2)c([N+](=O)[O-])cc1C [compound 138] | > 0.2 |
| COc1ccc(Cl)cc1NC(=O)N[C@H]1CC[C@@H](Nc2nc(N(C)C)c3ccccc3n2)CC1 [compound 835] | > 0.2 |
| CN(C)c1nc(N[C@H]2CC[C@@H](CNC(=S)Nc3ccc(-c4cnco4)cc3)CC2)nc2ccccc12 [compound 818] | > 0.2 |
| CN(C)c1nc(N[C@H]2CC[C@@H](NC(=O)Nc3cc(C(F)(F)F)ccc3F)CC2)nc2ccccc12 [compound 97, N-(cis-4-{[4-(dimethylamino)quinazolin-2-yl]amino}cyclohexyl)-N′-[2-fluro-5-(trifluoromethyl)phenyl]urea] | > 0.2 |

Same assay, conditions: class by percent of control at 10^−7 M or by IC50; read-out: class

| IC50 [µM] | SMILES |
| --- | --- |
| > 0.2 | CN(C)c1nc(N[C@H]2CC[C@@H](NC(=O)C(O)c3c(F)cccc3F)CC2)nc2ccccc12 (relative stereo) [Example 1110, 2-(2,6-difluorophenyl)-N-(cis-4-{[4-(dimethylamino)quinazolin-2-yl]amino}cyclohexyl)-2-hydroxyacetamide] |
| > 0.2 | COc1ccc(CN[C@@H]2CC[C@H](Nc3nc(N(C)C)c4ccccc4n3)C2)c(OC)c1 [Example 1044, N2-{(1S,3R)-3-[(2,4-dimethoxybenzyl)amino]cyclopentyl}-N4,N4-dimethylquinazoline-2,4-diamine] |

Continued, compound first:

| SMILES | IC50 [µM] |
| --- | --- |
| CN(C)c1nc(N[C@H]2CC[C@@H](NC(=O)c3cccnc3Oc3cccc(OC(F)(F)F)c3)CC2)nc2ccccc12 [Example 1036, N-(cis-4-{[4-(dimethylamino)quinazolin-2-yl]amino}cyclohexyl)-2-[3-(trifluoromethoxy)phenoxy]nicotinamide] | < 0.05 |
| CN(C)c1nc(N[C@H]2CC[C@@H](NC(=O)c3ccc(OC(F)(F)F)cc3)CC2)nc2cc(F)c(F)cc12 [Example 1211, N-(cis-4-{[4-(dimethylamino)-6,7-difluoroquinazolin-2-yl]amino}cyclohexyl)-4-(trifluoromethoxy)benzamide] | > 0.2 |
| Cc1ccccc1CNC(=O)[C@H]1CC[C@@H](Nc2nc(N(C)C)c3ccccc3n2)CC1 [Example 1166, cis-4-{[4-(dimethylamino)quinazolin-2-yl]amino}-N-(2-methylbenzyl)cyclohexanecarboxamide] | < 0.05 |
| CN(C)c1nc(N[C@H]2CC[C@@H](NC(=O)c3cccnc3Oc3ccc(F)c(F)c3)CC2)nc2ccccc12 [Example 1038, 2-(3,4-difluorophenoxy)-N-(cis-4-{[4-(dimethylamino)quinazolin-2-yl]amino}cyclohexyl)nicotinamide] | < 0.05 |
